In patent US20130123287A1, “CONTROL AGENT FOR SOFT ROT AND CONTROL METHOD FOR THE SAME” (ISHIHARA SANGYO KAISHA, LTD., priority 2010, published 2013):

Assays:
[1] = test system: soft rot of Chinese cabbage; assay: Test for controlling soft rot of Chinese cabbage, Example 2 / Comparative Example 2 (field, cultivar Harebutai 65); assay type: in vivo; conditions: 150 L/10 a sprayed onto planting holes before planting, 64 days after start
Description: Frequency of the disease=[sigma(number of plants with the onset of the disease at each severity level*index of the onset of the disease)/(plants examined*4)]*100
Disease control value=[1-(frequency of the disease in the treated lot/frequency of the disease in the non-treated lot)]*100
• 0: No onset • 1: Onset in some of outer leaves (shippable) • 2: Onset in outer leaves and some of head leaves (by removing damaged parts, the resulting cabbage can be shipped as small cabbage but is ranked as grade B). • 3: Most of head leaves are inflicted with the onset of the disease or with severer damages (not shippable) • 4: Whole cabbage plant is inflicted with the onset of the disease and is dead.
200 g/l Azoxystrobin (Amistar 20 FLOWABLE [trade name], manufactured by Syngenta Japan K.K.) was adjusted to 500 g ai/10a (0.5 g/m^2, 2500 ml Product/10a) as the amount of the active ingredient and to 150 L/10a as the volume of diluent water.
30% w/w triflumizol (TRIFUMIN WP [trade name], manufactured by Nippon Soda Co., Ltd.) was adjusted to 500 g ai/10a (0.5 g/m^2, 1667 g Product/10a) as the amount of the active ingredient and to 150 L/10a as the volume of diluent water.
100 g/1 cyazofamid (RANMAN PLOWABLE [trade name], manufactured by Ishihara Sangyo Kaisha, Ltd.) was adjusted to 500 g ai/10a (0.5 g/m^2, 5000 ml Product/10a) as the amount of the active ingredient and to 150 L/10a as the volume of diluent water.
50% w/w penthiopyrad (GAIA WG [trade name], manufactured by Mitsui Chemicals Agro, Inc.) was adjusted to 500 g ai/10a (0.5 g/m^2, 1000 g Product/10a) as the amount of the active ingredient and to 150 L/10a as the volume of diluent water.
50 g/l flusulfamide (SCABLOCK SC [trade name], manufactured by Mitsui Chemicals Agro, Inc.) was adjusted to 500 g ai/10a (0.5 g/m^2, 10000 ml Product/10a) as the amount of the active ingredient and to 150 L/10a as the volume of diluent water.
400 g/1 chlorothalonil (Daconil 1000 [the trade name], manufactured by Sumitomo Chemical, Limited) was adjusted to 1000 g ai/10a (1.0 g/m^2, 2500 ml Product/10a) as the amount of the active ingredient and to 150 L/10a as the volume of diluent water.
(§1) After spreading an agricultural mulch-sheet and opening planting holes (diameter of about 5 cm) for permanent planting through the mulch-sheet, the spray solutions prepared as described above were sprayed onto the planting holes such that the amount of treated active ingredient of chlorothalonil was 1.0 g/m^2 (150 L per 10a) and the amount of each of the remaining spray solutions was 0.5 g/m^2 (150 L per 10a), followed by air-drying; subsequently, seedlings of Chinese cabbage (cultivar Harebutai 65) grown for 4 weeks in cell mold trays (128 holes/nursery box) were planted such that 19 seedlings were planted in each test lot having an area of 2.4 m^2 with two replications.
(§2) Preparation was performed by diluting streptomycin (Mycin 20 wettable powder solution [under the trade name] manufactured by Hokko Chemical Industry Co., Ltd.) with water to 1/1000.
(§3) In a field spread with the agricultural mulch-sheet, Chinese cabbage seedlings (cultivar: Harebutai 65) grown by the same method as in Example 2 were planted by the same method as in Example 2, for spraying the spray solution of streptomycin prepared above in (1) (at each spray volume of 300 L/10a) twice (27 days and 48 days after the planting of the seedlings) on the stems and leaves with a sprayer.
64 days after the start of the tests, all the plants in each lot were examined about the severity level of the disease to assess the frequency of the disease and the disease control value. In the same manner as described above, the frequency of the disease and the disease control value were determined. Additionally, soft rot is a disease with damages hardly controlled, so even a chemical at the level C determined by the tests of the effects can practically be used.

[2] = test system: bacteria causing the soft rot (Erwinia carotovora); assay: Inhibition test of growth of bacteria causing soft rot, Reference Test Example 3; assay type: cell-based; conditions: for formed colonies (growth state), grade: PSA medium, 27 degrees Celsius, 2 days; for inhibition of growth of Erwinia carotovora (in words): active ingredient concentration of 1,000 ppm
Description: (§4) Inhibition test of growth of bacteria causing soft rot of potato An inhibition test of the growth of bacteria causing the soft rot was done, when a control agent was directly applied to the bacteria causing the soft rot. A given volume of each pesticide of triflumizol (TRIFUMIN WP [trade name] manufactured by Nippon Soda Co., Ltd.), chlorothalonil (Daconil 1000 [trade name], manufactured by Sumitomo Chemical Company, Limited) and streptomycin (Mycin Wettable powder [trade name] manufactured by Hokko Chemical Industry Co., Ltd.) was added together with a suspension of the bacteria causing the soft rot (Erwinia carotovora) to a preliminarily dissolved PSA culture medium (55 degrees Celsius) for subsequent thorough agitation, which was then spread on a plate for culturing at 27 degrees Celsius for 2 days, to examine the growth state. Subsequently, the formed colonies were examined according to the following three grades. • +: at the same level as the level of non-treated lot. Plus or minus: apparently less than the colonies of the non-treated lot. • −: almost no colonies observed.

[3] = test system: bacteria causing the soft rot (Erwinia carotovora); assay: Inhibition test of growth of bacteria causing soft rot, Reference Test Example 2; assay type: cell-based; conditions: for formed colonies (growth state), grade: PSA medium, 27 degrees Celsius, 2 days; for inhibition of growth of Erwinia carotovora (in words): active ingredient concentration of 1,000 ppm
Description: as §4, with “azoxystrobin (Amistar-20 FLOWABLE [trade name], manufactured by Syngenta Japan K.K.), penthiopyrad (GAIA WG [trade name], manufactured by Mitsui Chemicals Agro, Inc.), flusulfamide (SCABLOCK SC” for “triflumizol (TRIFUMIN WP”, “Mitsui Chemicals Agro, Inc.),” for “Nippon Soda Co., Ltd.), chlorothalonil (Daconil 1000 [trade name], manufactured by Sumitomo Chemical Company, Limited)”, “lot.” for “lot. Plus or minus: apparently less than the colonies of the non-treated lot. • −: almost no colonies observed.”
(§5) Plus or minus: apparently less than the colonies of the non-treated lot. • −: almost no colonies observed.

[4] = test system: soft rot of Chinese cabbage; assay: Test for controlling soft rot of Chinese cabbage, Example 1 / Comparative Example 1 (field, cultivar Muso); assay type: in vivo; conditions: 250 g ai/10 a, 150 L/10 a sprayed onto planting holes before planting, 54 days after start
Protocol: 200 g/l Azoxystrobin (Amistar 20 FLOWABLE [trade name], manufactured by Syngenta Japan K.K.) was adjusted to 250 g ai/10a (0.25 g/m^2, 1250 ml Product/10a) as the amount of the active ingredient and to 150 L/10a as the volume of diluent water.
100 g/l Cyazofamid (RANMAN FLOWABLE [trade name], manufactured by Ishihara Sangyo Kaisha, Ltd.) was adjusted to 250 g ai/10a (0.25 g/m^2, 2500 ml Product/10a) as the amount of the active ingredient and to 150 L/10a as the volume of diluent water.
177 g/l Amisulbrom (LEIMAY FLOWABLE [trade name], manufactured by Nissan Chemical Industries, Ltd.) was adjusted individually to 250 g ai/10a (0.25 g/m^2, 1412 ml Product/10a) as the amount of the active ingredient and to 150 L/10a as the volume of diluent water.
as §1, with “about 9” for “about 5”, “of each spray solution” for “of chlorothalonil”, “was 0.25” for “was 1.0 g/m^2 (150 L per 10a) and the amount of each of the remaining spray solutions was 0.5”, “cabbage (cultivar: Muso)” for “cabbage (cultivar Harebutai 65)”, “that 30” for “that 19”, “of 6” for “of 2.4”
as §2
as §3, with “Muso)” for “Harebutai 65)”, “1” for “2”, “1,” for “2,”, “three times (13 days, 20” for “twice (27”, “27” for “48”, “leaves.” for “leaves with a sprayer.”
54 days after the start of the tests, all the plants in each lot were examined about the severity level of the disease; according to the following equations, the ratio of the plants with the onset of the disease, the frequency of the disease, and the disease control value were calculated to determine and rank the effects at A to D levels. Because soft rot is a disease with damages hardly controlled, herein, even a chemical at the level C determined by the tests of the effects can practically be used.
Ratio of the plants with the onset of the disease=(Number of plants with the onset of the disease/number of plants examined)*100
Frequency of the disease=[sigma(number of plants with the onset of the disease at each severity level*index of the onset of the disease)/(plants examined*4)]*100 […]

[5] = test system: bacteria causing the soft rot (Erwinia carotovora); assay: Inhibition test of growth of bacteria causing soft rot, Reference Test Example 1; assay type: cell-based; conditions: for formed colonies (growth state), grade: PSA medium, 25 degrees Celsius, 4 days
Protocol: An inhibition test of the growth of bacteria causing the soft rot was done, when a control agent was directly applied to the bacteria causing the soft rot. A given volume of each pesticide of cyazofamid (RANMAN 400SC [trade name] manufactured by Ishihara Sangyo Kaisha, Ltd.), amisulbrom (LEIMAY FLOWABLE [trade name], manufactured by Nissan Chemical Industries, Ltd.) and streptomycin (Mycin Wettable powder [trade name] manufactured by Hokko Chemical Industry Co., Ltd.) was added together with a suspension of the bacteria causing the soft rot (Erwinia carotovora) to a preliminarily dissolved PSA culture medium (55 degrees Celsius) for subsequent thorough agitation, which was then spread on a plate for culturing at 25 degrees Celsius for 4 days, to examine the growth state. Subsequently, the formed colonies were examined according to the following three grades. • +: at the same level as the level of non-treated lot.
as §5

Row | Structure (SMILES) | formed colonies (growth state), grade ([2]; 100 ppm active ingredient) | formed colonies (growth state), grade ([2]; 500 ppm active ingredient) | formed colonies (growth state), grade ([2]; 1000 ppm active ingredient) | inhibition of growth of Erwinia carotovora (in words) [2] | Determination of effect ([1]; 500 g ai/10 a) | formed colonies (growth state), grade ([3]; 100 ppm active ingredient) | formed colonies (growth state), grade ([3]; 500 ppm active ingredient) | formed colonies (growth state), grade ([3]; 1000 ppm active ingredient) | inhibition of growth of Erwinia carotovora (in words) [3] | Determination of effect [4] | other results
1 | N#Cc1c(Cl)c(Cl)c(Cl)c(C#N)c1Cl [Chlorothalonil, 2,4,5,6-tetrachloro-1,3-benzene dicarbonitrile] | +, + | +, + | +, + | never inhibited the growth | – | – | – | – | – | – | Determination of effect ([1]; 1000 g ai/10 a): B (B: Effective (41 to 60 disease control value))
2 | CC(C)CC(C)c1sccc1NC(=O)c1cn(C)nc1C(F)(F)F (racemic) [Penthiopyrad, (RS)-N-[2-(1,3-dimethylbutyl)-3-thienyl]-1-methyl-3-(trifluoromethyl)-1H-pyrazole-4-carboxamide] | – | – | – | – | C (C: Effective at low level (21 to 40 disease control value)) | +, + | +, + | +, + | never inhibited the growth | – | –
3 | O=[N+]([O-])c1ccc(NS(=O)(=O)c2ccc(Cl)c(C(F)(F)F)c2)c(Cl)c1 [Flusulfamide, 2′, 4-dichloro-alpha,alpha,alpha-trifluoro-4′-nitro-m-toluenesulfone anilide] | – | – | – | – | B (B: Effective (41 to 60 disease control value)) | +, + | +, + | +, + | never inhibited the growth | – | –
4 | CCCOC/C(=N\c1ccc(Cl)cc1C(F)(F)F)n1ccnc1 [Triflumizol, (E)-4-chloro-alpha,alpha,alpha-trifluoro-N-[1-imidazol-1-yl-2-propoxyethylidene]-o-to luidine] | +, + | +, + | +, + | never inhibited the growth | C (C: Effective at low level (21 to 40 disease control value)) | – | – | – | – | – | –
5 | Cc1c(Br)c2ccc(F)cc2n1S(=O)(=O)c1ncn(S(=O)(=O)N(C)C)n1 [Amisulbrom, 3-[(3-bromo-6-fluoro-2-methyl-1H-indol-1-yl)sulfonyl]-N,N-dimethyl-1H-1,2,4-triazole-1-sulfoneamide] | – | – | – | – | – | – | – | – | – | C (C: Effective at low level (21 to 40 disease control value)) | formed colonies (growth state), grade ([5]; 100 ppm active ingredient): +, +; formed colonies (growth state), grade ([5]; 500 ppm active ingredient): +, +; formed colonies (growth state), grade ([5]; 1000 ppm active ingredient): +, +; inhibition of growth of Erwinia carotovora (in words) ([5]; active ingredient concentration of 1,000 ppm): never inhibited the growth
6 | CO/C=C(/C(=O)OC)c1ccccc1Oc1cc(Oc2ccccc2C#N)ncn1 [Azoxystrobin, methyl=(E)-2-{2-[6-(2-cyanophenoxy)pyrimidin-4-yloxy]phenyl}-3-methoxyacrylate] | – | – | – | – | B (B: Effective (41 to 60 disease control value)) | +, + | +, + | +, + | never inhibited the growth | C (C: Effective at low level (21 to 40 disease control value)) | –
